Data set [1] relates to BCR-ABL+ FL5.12 cells. Nature of the data set: Viability by propidium iodide exclusion (flow cytometer). Format: cell-based. To be noted: for viability (cell death): 22 hours, FIG. 12. Here is the method: BCR-ABL^+ FL5.12 cells were cultured in cytokine-free medium containing either 0.2 mM glucose (“low glucose”; -Glucose) or 10 mM glucose (“high glucose”, +Glucose) for 48 hours. The mean viability and standard deviation were determined by propidium iodide exclusion in a FACSAria flow cytometer (BD). Cells were washed three times in PBS and resuspended at a concentration of 2×10^5 per mL in media supplemented with 2 μg/mL of propidium iodide (Molecular Probes) prior to analysis. For the viability analysis of BCL-ABL^+ primary bone marrow cells, viability was measured after withdrawal from cytokines for five (5) days in high glucose or low glucose media. Methods used for culturing cells and measuring viability are described above and below.
Fatty acid oxidation inhibition via ST247, an inverse agonist that inhibits PPARδ activity, was examined. BCR-ABL-expressing FL5.12 cells were pretreated with vehicle control or 20 nM rapamycin overnight. Cells were cultured for 22 hours in complete medium lacking IL-3 and glucose, supplemented with the indicated treatments (vehicle, 0.5 μM ST247, 1 μM ST247, or 5 μM ST247). Viability was measured in three technical replicates by propidium iodide (PI) exclusion using a flow cytometer. […] The effect was dose dependent, with lesser concentrations resulting in little effect in rapamycin-treated cells.
In order to investigate the metabolic switch as glycolysis declines, BCR-ABL-expressing FL5.12 cells were pretreated with vehicle control or 20 nM rapamycin overnight. Cells were then cultured in complete medium lacking IL-3 with 100 μM glucose (a limiting concentration) for 46 hours, supplemented with either vehicle control or 5 μM ST247. Viability was measured in three technical replicates by PI exclusion in a flow cytometer.
BCR-ABL-expressing FL5.12 cells were pretreated with vehicle control or 20 nM rapamycin overnight. Cells were then cultured in complete medium lacking IL-3 with 50 μM glucose for 48 hours, supplemented with the indicated treatments (vehicle, 1 μM GW6471, 10 μM GW7647, or 5 μM ST247). Viability was measured in three technical replicates by PI exclusion in a flow cytometer.

In data set [2] the test system is S6K1. Nature of the data set: Ribosomal protein S6 phosphorylation as readout of S6K1 activity. In kind it is cell-based. To be noted: imatinib 1.5 μM. The procedure:
In particular, vector control and BCR-ABL^+ cells were cultured for three (3) hours in the absence of growth factor, then restimulated for thirty (30) minutes for analysis of S6K1 phosphorylation at T389 and the phosphorylation of ribosomal protein S6 at serines 235/236.
Small ribosomal protein S6 (pS^6) phosphorylation was measured.

Data set [3] concerns Akt. Nature of the data set: Akt phosphorylation immunoblot in BCR-ABL+ FL5.12 cells. To be noted: rebound after S6K1 knockdown; FIG. 5A. In kind it is cell-based, murine. The procedure: Although Akt activation has been previously associated with glucose-dependent survival (see FIG. 4A), rebound activation of Akt was tested for association with increased survival in BCR-ABL^+ cells cultured under low glucose conditions. […] Inactivation of mTORC1 and S6K1 can trigger increases in the activity of Akt and other upstream kinases, due to knockdown or loss of feedback regulation.
Rapamycin treatment can induce rebound Akt activation in short-term cultures, but long term treatment can suppress Akt activation by the upstream kinase mTORC2. See, e.g., Sarbassov, et al., (2006) Mol Cell 22:159-68.
A general note: Immunoblotting shows a protein as a band on a membrane.

The subject of data set [4] is BCR-ABL+ KBM7 cells. The data set can be described thus: Fatty acid oxidation, 3H release from 3H-palmitate. In kind it is cell-based, human. To be noted: etomoxir and/or rapamycin; FIG. 7C. The procedure: (§1) The rate of ^3H release from ^3H-palmitate was used to measure FAO. The ^3H-palmitate was adopted from Djouadi, et al., (2003) Mol Genet Metab 78:112-8. Between approximately 0.5×10^6 and approximately 1.0×10^6 cells were washed with PBS, then cultured with approximately 400 μL of (9,10-^3H) palmitate:albumin for approximately 4 hours at approximately 37 degrees C. After incubation, approximately 10% TCA was added to each tube and centrifuged at approximately 3300 rpm for approximately 10 min at approximately 4 degrees C. before being mixed with 6N NaOH and applied to ion-exchange columns. Each column was washed with approximately 1 mL of water and the eluates were counted using a scintillation counter.

Data set [5] relates to BCR-ABL+ K562 cells. The data set can be described thus: Fatty acid oxidation, 3H release from 3H-palmitate. Format: cell-based, human. The note with it: etomoxir and/or rapamycin; FIG. 7B. Here is the method:
as §1

The subject of data set [6] is BCR-ABL+ K562 cells. Nature of the data set: Viability by propidium iodide exclusion. Format: cell-based, human. To be noted: full glucose; FIG. 10; not as strong as S6K1 knockdown with etomoxir.
For data set [7], the system named is BCR-ABL+ FL5.12 cells. Nature of the data set: Fatty acid oxidation, 3H release from 3H-palmitate. In kind it is cell-based, murine. The note with it: etomoxir, upon S6K1 inactivation; FIG. 7A. Here is the method:
as §1

“Also recorded” adds a separate entry of the source.

Take `NC(=O)c1ncn([C@@H]2O[C@H](CO)[C@@H](O)[C@H]2O)c1N` [AICAR, 5-aminoimidazole-4-carboxamide 1-β-D-ribofuranoside]: the glucose-independent survival entry in data set [1] (AICAR, low glucose, level similar to S6K1 knockdown, FIG. 8B) is “triggered glucose-independent survival”.

`CCC(=O)NC[C@H](Cc1ccc(OCCc2nc(-c3ccccc3)oc2C)cc1)N/C(C)=C\C(=O)c1ccc(C(F)(F)F)cc1` [GW6471, N-((2S)-2-(((1Z)-1-Methyl-3-oxo-3-(4-(trifluoromethyl)phenyl)prop-1-enyl)amino)-3-(4-(2-(5-methyl-2-phenyl-1,3-oxazol-4-yl)ethoxy)phenyl)propyl)propanamide]: the “viability (restoring apoptosis)” value in data set [1] (1 μM GW6471, 20 nM rapamycin pretreated, 50 μM glucose, 48 hours, FIG. 14) is recorded as “somewhat effective in restoring apoptosis”.

On to `CC(C)(Sc1ccc(CCN(CCCCC2CCCCC2)C(=O)NC2CCCCC2)cc1)C(=O)O` [GW7647], for which the viability result in data set [1] (10 μM GW7647, vehicle-control treated cells, 50 μM glucose, 48 hours, FIG. 14) is “undesired increase in viability”.

For `CCCCCCNc1ccc(NS(=O)(=O)c2ccsc2C(=O)OC)c(OC)c1` [ST247], the “viability (cell death)” value in data set [1] (5 μM ST247, 20 nM rapamycin pretreated overnight, no IL-3, no glucose) is on record as “triggered substantial cell death”; in data set [1] (lesser concentrations of ST247 (0.5 μM, 1 μM), rapamycin-treated, no glucose), “little effect”. In data set [1] (5 μM ST247, 20 nM rapamycin pretreated, 50 μM glucose, 48 hours, FIG. 14), the “viability (restoring apoptosis)” value is “restoring apoptosis”. Besides, the “viability (survival advantage)” value in data set [1] (5 μM ST247, 20 nM rapamycin pretreated, 100 μM glucose, 46 hours, FIG. 13) was “counteracted the survival advantage induced by rapamycin”.

In the case of `Cc1ccc(NC(=O)c2ccc(CN3CCN(C)CC3)cc2)cc1Nc1nccc(-c2cccnc2)n1` [imatinib], in data set [2], the “S6K1 activity (phosphorylation of pS6)” value is “reduced S6K1 activity”.

In the case of `Cn1c(=O)n(-c2ccc(C(C)(C)C#N)cc2)c2c3cc(-c4cnc5ccccc5c4)ccc3ncc21` [BEZ235], the “Akt activation (phosphorylation at serine 473)” value in data set [3] was “prevented the increase in Akt activation”. Moreover, the glucose-independent survival entry in data set [1] (S6K1 inactivation (knockdown) plus BEZ235, low glucose, FIG. 5B) is on record as “did not prevent glucose-independent survival”.

Regarding `CCOC(=O)[C@@]1(CCCCCCOc2ccc(Cl)cc2)CO1` [etomoxir], the “3H release from 3H-palmitate (FAO)” value in data set [4], in data set [5] and in data set [7] was “reduced ^3H release” throughout. For the same compound, the “apoptosis, combination with S6K1 knockdown” value in data set [1] (200 μM etomoxir plus S6K1 knockdown, full glucose, approximately 48 hours, FIG. 9A) is given as “induced significant apoptosis”. For the same compound, the “cytotoxicity as a single agent” value in data set [1] (200 μM etomoxir, full glucose, approximately 48 hours, FIG. 9A) was “mild cytotoxic effect”. For the same compound, in data set [1] (etomoxir about 200 μM to about 300 μM, full glucose, FIG. 9B), the “cell death in response to etomoxir, dose curve with S6K1 knockdown” value is listed as “enhanced cell death”. Further, the “cell survival mediated by AICAR” value in data set [1] (low glucose, etomoxir added, FIG. 8B) was “prevented cell survival”. Besides, the “survival of S6K1 knockdown cells” value in data set [1] (low glucose, presence of etomoxir, FIG. 8A, 8B) is on record as “prevented the survival; also recorded: prevented cell survival”. Also, in data set [6], the “cytotoxicity of etomoxir in the presence of rapamycin” value is “enhanced cytotoxicity”.
